Five compounds from patent publication US12139742B2, “Devices, systems, and methods for preparing a standardized inoculum for antimicrobial susceptibility testing” (Avails Medical, Inc., priority 2020, dated 2024) can be followed below.

Experiment [1] deals with KOx harboring the KPC-3 gene. In words: Disk diffusion AST, single isolate with major error. In kind it is cell-based, Klebsiella oxytoca. As to the method:
(§1) The first set was prepared using the presently disclosed method 1700 (sample preparation time: between 60 minutes and 180 minutes) and the second set was prepared using traditional microbial subculturing techniques (sample preparation time: between 18 hours to 24 hours). The testing was conducted using the automated VITEK®2 GN81 AST platform (see Table 1) and manual Kirby-Bauer disk diffusion (see Table 2).

Experiment [2] concerns 23 different positive blood culture (PBC) samples comprising seven different species of bacteria. In words: VITEK 2 GN81 automated AST of 0.5 McFarland inocula (present method vs traditional subculture). The experiment is classed as cell-based. To be noted: for # I: number of isolates deemed intermediate (I); for # R: number of isolates deemed resistant (R); for # S: number of isolates deemed susceptible (S). As to the method:
(§2) Both the present method 1700 and traditional microbial subculturing techniques were used to prepare standardized 0.5 McFarland inocula for AST using Kirby-Bauer disk diffusion (see Table 1) and the automated VITEK2 GN81 AST platform (see Table 2).
(§3) Two sets of standardized 0.5 McFarland inocula were prepared from 23 different positive blood culture (PBC) samples comprising seven different species of bacteria. The 23 PBC samples included six samples of Escherichia coli (ECo), two samples of Enterobacter cloacae (ECl), three samples of Klebsiella pneumoniae (KPn), four samples of Klebsiella oxytoca (KOx), two samples of Citrobacter freundii (CFr), four samples of Serratia marcescens (SMa), and two samples of Klebsiella aerogenes (KAe).
as §1

The test system is the same in experiment [3]. Nature of the experiment: Kirby-Bauer disk diffusion AST of 0.5 McFarland inocula (present method vs traditional subculture). The experiment is classed as cell-based. To be noted: for # I: number of isolates deemed intermediate (I); for # R: number of isolates deemed resistant (R); for # S: number of isolates deemed susceptible (S).
From the text: The standardized inoculum 1726 (e.g., the 0.5 McFarland inoculum) can then be used directly for antimicrobial susceptibility testing using manual disk diffusion or diluted further for automated AST platforms. For example, the standardized inoculum 1726 prepared using the method 1700 and system 1702 disclosed herein can be subjected to manual Kirby-Bauer disk diffusion AST or an automated AST platform such as the VITEK®2 platform.
as §2, §3, §1
In total, 296 minimum inhibitory concentrations (MICs) from the VITEK®2 GN81 platform and 224 zone sizes on disk diffusion were evaluated.
On the technique in general: A growth-free zone around the sample is the usual read-out of agar diffusion tests.

[4] abbreviates: inoculum prepared using the present method 1700.

Turning to `C[C@@H](O)[C@H]1C(=O)N2C(C(=O)O)=C(S[C@@H]3CN[C@H](C(=O)N(C)C)C3)[C@H](C)[C@H]12` [Meropenem], in experiment [1] (control 0.5 McFarland inoculum), the susceptibility category entry is “susceptible” and the zone size came to 23 mm. Further, in experiment [1] (setting [4]), the susceptibility category entry was “resistant” and the zone size was 19 mm.
For Amoxicillin-Clavulanic acid, in experiment [2], the “# I” value came out at 1, the “# R” value stood at 6 and the “# S” value is 6. Besides, in experiment [3], the “# I” value came to 0, the “# R” value came out at 7 and the “# S” value is 6.
With Gentamicin, in experiment [2], the “# I” value came to 1, the “# R” value came out at 2 and the “# S” value is reported as 20. In experiment [3], the “# I” value was determined as 1, the “# R” value was found to be 2 and the “# S” value came out at 20.
Turning to Piperacillin-tazobactam, in experiment [2], the “# I” value is given as 1, the “# R” value was found to be 3 and the “# S” value came to 5. Besides, in experiment [3], the “# I” value is on record as 1, the “# R” value came out at 3 and the “# S” value stood at 14.
On to Trimethoprim-sulfamethoxazole, for which, in experiment [2], the “# I” value was found to be 0, the “# R” value turned out to be 6 and the “# S” value turned out to be 11.
